Results from US11358962B2, “2-hetaryl imidazol[1,2-a]pyridine derivatives” (Hoffmann-La Roche Inc., priority 2013, dated 2022).

Test system: native tau aggregates
Assay: TAU radioligand in vitro displacement assay ([3H]T808, autoradiography on human AD brain sections)
Assay type: binding
Conditions: compound 10 nM, radioligand [3H]T808 10 nM
Text: TAU Radioligand-In-Vitro Displacement Assay
This in vitro binding assay assesses the affinity of compounds for native tau aggregates.
AD human brains are purchased from Banner Sun Health Research Institute (Sun City, Ariz., USA). Pathological diagnosis of AD is made according to standard NIA-Reagan Institute criteria based on neuropathological data. The radioligand [^3H]T808 was synthesized in-house ([^3H]-2-[4-(2-Fluoro-ethyl)-piperidin-1-yl]-benzo[4,5]imidazo[1,2-a]pyrimidine, radiochemical purity 99.0%). As a reference cold T808 is used (2-[4-(2-Fluoro-ethyl)-piperidin-1-yl]-benzo[4,5]imidazo[1,2-a]pyrimidine). For the autoradiography FujiFilm Imaging Plates (BAS-IP TR 2025) are exposed to the sections and read with a FujiFilm IP reader (BAS-5000).
Ten μm thick human AD brain sections are generated with a cryostat (Leica CM3050) at −17° C. chamber temperature and −15° C. object temperature. Sections are transferred to Histobond+ microscope slides (Marienfeld Laboratory Glasware). After drying for 3 hours at room temperature the sections are stored at −20° C. The sections are incubated with the radioligand (10 nM) and the respective cold compound (at various concentrations) in 50 mM Tris buffer, pH 7.4 at room temperature for 30 min. After washing 3× 10 min at 4° C. in 50 mM Tris buffer, pH 7.4 and 3 quick dips in H2O dist. at 4° C. the sections are dried at 4° C. for 3 h. The sections are placed in a FujiFilm Cassette (BAS 2025), exposed with an Imaging Plate for five days and afterwards scanned with a resolution of […].
The signal intensity (Dens−PSL/mm2) in the region of interest (ROI) of the autoradiogram is quantified with the software MCID analysis (version 7.0, Imaging Research Inc.). The specific binding (SB) of [^3H]T808 binding in absence or in presence of a compound is calculated by subtracting the non-specific binding signal in the white matter, thus yielding SB[3H]T808 only and SBcompound. The % displacement by the various compounds is calculated as following: % displacement=100−(SBcompound/SB[3H]T808 only)*100. Validation Data
In each experiment cold T808 is used as a positive internal control. Co-incubation of equimolar amounts of hot and cold T808 is expected to reduce specific binding by approximately 50%.

First: Oc1ccc(-c2cn3ccc(N4CCC4)cc3n2)cc1 [Example 40, 4-(7-Azetidin-1-yl-imidazo[1,2-a]pyridin-2-yl)-phenol]
Second: Cc1ccc(-c2cn3ccc(N4CCC4)cc3n2)cc1 [Example 54, 7-Azetidin-1-yl-2-p-tolyl-imidazo[1,2-a]pyridine]
The “% displacement of [3H]T808 (10 nM) at 10 nM” value (“% displacement of [3H]T808” for short) of the first is higher: 37% for the first, 30% for the second.

First: CN(C)c1ccc(-c2cn3ccc(N4CCC(F)CC4)cc3n2)cc1 [Example 41, {4-[7-(4-Fluoro-piperidin-1-yl)-imidazo[1,2-a]pyridin-2-yl]-phenyl}-dimethyl-amine]
Second: Cc1ccc(-c2cn3ccc(N4CCC(F)CC4)cc3n2)cc1 [Example 57, 7-(4-Fluoro-piperidin-1-yl)-2-p-tolyl-imidazo[1,2-a]pyridine]
The “% displacement of [3H]T808” value of the first is lower: 18% for the first, 20% for the second.

Compared with `F[C@@H]1CCN(c2ccn3cc(-c4ccccc4)nc3c2)C1` [Example 42, 7-((R)-3-Fluoro-pyrrolidin-1-yl)-2-phenyl-imidazo[1,2-a]pyridine], `CO[C@@H]1CCN(c2ccn3cc(-c4ccccc4)nc3c2)C1` [Example 43, 7-((R)-3-Methoxy-pyrrolidin-1-yl)-2-phenyl-imidazo[1,2-a]pyridine] is lower in “% displacement of [3H]T808” value: 23% for the first, 15% for the second.

First: CNc1ccn2cc(-c3cccc(OC)c3)nc2c1 [Example 44, [2-(3-Methoxy-phenyl)-imidazo[1,2-a]pyridin-7-yl]-methyl-amine]
Second: COc1cccc(-c2cn3ccc(NCCF)cc3n2)c1 [Example 76, (2-Fluoro-ethyl)-[2-(3-methoxy-phenyl)-imidazo[1,2-a]pyridin-7-yl]-amine]
The “% displacement of [3H]T808” value of the first is lower: 29% for the first, 31% for the second.

Compared with `CNc1ccn2cc(-c3ccc(OCF)cc3)nc2c1` [Example 45, [2-(4-Fluoromethoxy-phenyl)-imidazo[1,2-a]pyridin-7-yl]-methyl-amine], `CNc1ccn2cc(-c3ccc(OC)cc3)nc2c1` [Example 74, [2-(4-Methoxy-phenyl)-imidazo[1,2-a]pyridin-7-yl]-methyl-amine] is lower in “% displacement of [3H]T808” value: 45% for the first, 44% for the second.

First: Cc1ccc(-c2cn3ccc(NCCF)cc3n2)cc1 [Example 46, (2-Fluoro-ethyl)-(2-p-tolyl-imidazo[1,2-a]pyridin-7-yl)-amine]
Second: COc1ccc(-c2cn3ccc(NCCF)cc3n2)cc1 [Example 75, (2-Fluoro-ethyl)-[2-(4-methoxy-phenyl)-imidazo[1,2-a]pyridin-7-yl]-amine]
The “% displacement of [3H]T808” value of the first is lower: 27% for the first, 42% for the second.

First: Cc1cccc(-c2cn3ccc(NCCF)cc3n2)c1 [Example 47, (2-Fluoro-ethyl)-(2-m-tolyl-imidazo[1,2-a]pyridin-7-yl)-amine]
Second: Cc1ccc(-c2cn3ccc(NCCF)cc3n2)cc1C [Example 72, [2-(3,4-Dimethyl-phenyl)-imidazo[1,2-a]pyridin-7-yl]-(2-fluoro-ethyl)-amine]
The “% displacement of [3H]T808” value of the first is higher: 36% for the first, 25% for the second.

Compared with `CO[C@H]1CCN(c2ccn3cc(-c4cccc(C)c4)nc3c2)C1` [Example 48, 7-((S)-3-Methoxy-pyrrolidin-1-yl)-2-m-tolyl-imidazo[1,2-a]pyridine], `CO[C@@H]1CCN(c2ccn3cc(-c4ccc(C)cc4)nc3c2)C1` [Example 56, 7-((R)-3-Methoxy-pyrrolidin-1-yl)-2-p-tolyl-imidazo[1,2-a]pyridine] is higher in “% displacement of [3H]T808” value: 8% for the first, 28% for the second.

Compared with `FCOc1ccc(-c2cn3ccc(N4CCOCC4)cc3n2)cc1` [Example 49, 2-(4-Fluoromethoxy-phenyl)-7-morpholin-4-yl-imidazo[1,2-a]pyridine], `FCOc1ccc(-c2cn3ccc(N4CCC4)cc3n2)cc1` [Example 70, 7-Azetidin-1-yl-2-(4-fluoromethoxy-phenyl)-imidazo[1,2-a]pyridine] is higher in “% displacement of [3H]T808” value: 10% for the first, 32% for the second.

`FCCNc1ccn2cc(-c3ccc(OCF)cc3)nc2c1` [Example 50, (2-Fluoro-ethyl)-[2-(4-fluoromethoxy-phenyl)-imidazo[1,2-a]pyridin-7-yl]-amine] and `CSc1ccc(-c2cn3ccc(NCCF)cc3n2)cc1` [Example 79, (2-Fluoro-ethyl)-[2-(4-methylsulfanyl-phenyl)-imidazo[1,2-a]pyridin-7-yl]-amine] are the same in “% displacement of [3H]T808” value: 20% for the first, 20% for the second.

First: FCCNc1ccn2cc(-c3ccc4c(c3)OCO4)nc2c1 [Example 51, (2-Benzo[1,3]dioxol-5-yl-imidazo[1,2-a]pyridin-7-yl)-(2-fluoro-ethyl)-amine]
Second: COc1ccc(-c2cn3ccc(NCCF)cc3n2)cc1OC [Example 73, [2-(3,4-Dimethoxy-phenyl)-imidazo[1,2-a]pyridin-7-yl]-(2-fluoro-ethyl)-amine]
The “% displacement of [3H]T808” value of the first is higher: 35% for the first, 21% for the second.

First: Cc1ccc(-c2cn3ccc(N(C)C)cc3n2)cc1C [Example 52, [2-(3,4-Dimethyl-phenyl)-imidazo[1,2-a]pyridin-7-yl]-dimethyl-amine]
Second: CNc1ccn2cc(-c3ccc(C)c(C)c3)nc2c1 [Example 53, [2-(3,4-Dimethyl-phenyl)-imidazo[1,2-a]pyridin-7-yl]-methyl-amine]
The “% displacement of [3H]T808” value of the first is higher: 27% for the first, 25% for the second.

Compared with `Cc1cccc(-c2cn3ccc(N4CCC4)cc3n2)c1` [Example 55, 7-Azetidin-1-yl-2-m-tolyl-imidazo[1,2-a]pyridine], `Cc1cccc(-c2cn3ccc(N4CCC(F)CC4)cc3n2)c1` [Example 69, 7-(4-Fluoro-piperidin-1-yl)-2-m-tolyl-imidazo[1,2-a]pyridine] is lower in “% displacement of [3H]T808” value: 27% for the first, 22% for the second.

Compared with `FCCC1CCN(c2ccn3cc(-c4ccccc4)nc3c2)CC1` [Example 58, 7-[4-(2-Fluoro-ethyl)-piperidin-1-yl]-2-phenyl-imidazo[1,2-a]pyridine], `COc1ccc(-c2cn3ccc(N4CCC(CCF)CC4)cc3n2)cc1` [Example 77, 7-[4-(2-Fluoro-ethyl)-piperidin-1-yl]-2-(4-methoxy-phenyl)-imidazo[1,2-a]pyridine] is higher in “% displacement of [3H]T808” value: 12% for the first, 27% for the second.

Compared with `CO[C@H]1CCN(c2ccn3cc(-c4ccccc4)nc3c2)C1` [Example 59, 7-((S)-3-Methoxy-pyrrolidin-1-yl)-2-phenyl-imidazo[1,2-a]pyridine], `COc1cccc(-c2cn3ccc(N4CCC(F)CC4)cc3n2)c1` [Example 60, 7-(4-Fluoro-piperidin-1-yl)-2-(3-methoxy-phenyl)-imidazo[1,2-a]pyridine] is lower in “% displacement of [3H]T808” value: 36% for the first, 14% for the second.

Compared with `COc1ccc(-c2cn3ccc(N(C)CCF)cc3n2)cc1` [Example 65, (2-Fluoro-ethyl)-[2-(4-methoxy-phenyl)-imidazo[1,2-a]pyridin-7-yl]-methyl-amine], `COc1ccc(-c2cn3ccc(NC4CC4)cc3n2)cc1` [Example 67, Cyclopropyl-[2-(4-methoxy-phenyl)-imidazo[1,2-a]pyridin-7-yl]-amine] is higher in “% displacement of [3H]T808” value: 28% for the first, 34% for the second.

First: CNc1ccn2cc(-c3ccc(OC)c(OC)c3)nc2c1 [Example 66, [2-(3,4-Dimethoxy-phenyl)-imidazo[1,2-a]pyridin-7-yl]-methyl-amine]
Second: CNc1ccn2cc(-c3ccc(O)c(OC)c3)nc2c1 [Example 81, 2-Methoxy-4-(7-methylamino-imidazo[1,2-a]pyridin-2-yl)-phenol]
The “% displacement of [3H]T808” value of the first is lower: 40% for the first, 47% for the second.

Going from `FC1CCN(c2ccn3cc(-c4ccc5c(c4)OCO5)nc3c2)CC1` [Example 68, 2-Benzo[1,3]dioxol-5-yl-7-(4-fluoro-piperidin-1-yl)-imidazo[1,2-a]pyridine] to `FCOc1ccc(-c2cn3ccc(NC4CC4)cc3n2)cc1` [Example 80, Cyclopropyl-[2-(4-fluoromethoxy-phenyl)-imidazo[1,2-a]pyridin-7-yl]-amine], the “% displacement of [3H]T808” value rises from 25% to 34%.

First: CNc1ccn2cc(-c3ccc(SC)cc3)nc2c1 [Example 71, Methyl-[2-(4-methylsulfanyl-phenyl)-imidazo[1,2-a]pyridin-7-yl]-amine]
Second: Br.CN(C)c1ccn2cc(-c3cccc(O)c3)nc2c1 [Example 82, 3-(7-Dimethylamino-imidazo[1,2-a]pyridin-2-yl)-phenol hydrobromide]
The “% displacement of [3H]T808” value of the first is lower: 34% for the first, 49% for the second.

`CN(C)c1ccn2cc(-c3cccc(OCF)c3)nc2c1` [Example 78, [2-(3-Fluoromethoxy-phenyl)-imidazo[1,2-a]pyridin-7-yl]-dimethyl-amine] was tested, and the “% displacement of [3H]T808” value was 53%.
